In the kinase profiling compilation of Christmann-Franck et al. (2016):
Where “and” joins values, the source holds several entries; their conditions need not be identical. Identical values can stand only once.

What was measured:
Experiment in all cases: KINOMEscan competition binding
Conditions in all cases: compound 10.0 µM
IGF1R (human) = IGF1R (human) (UniProt P08069)
WEE1 (human) = WEE1 (human) (UniProt P30291)
PIP5K1C (human) = PIP5K1C (human) (UniProt O60331)
PRPF4B (human) = PRPF4B (human) (UniProt Q13523)
ZAP70 (human) = ZAP70 (human) (UniProt P43403)
MATK (human) = MATK (human) (UniProt P42679)
RPS6KA3 KD1 (human) = RPS6KA3 KD1 (human) (UniProt P51812)
AKT3 (human) = AKT3 (human) (UniProt Q9Y243)
ULK2 (human) = ULK2 (human) (UniProt Q8IYT8)
CDK14 (human) = CDK14 (human) (UniProt O94921)
NTRK2 (human) = NTRK2 (human) (UniProt Q16620)
CSK (human) = CSK (human) (UniProt P41240)
BTK (human) = BTK (human) (UniProt Q06187)
PDGFRA (human) = PDGFRA (human) (UniProt P16234)
TESK1 (human) = TESK1 (human) (UniProt Q15569)
CDKL3 (human) = CDKL3 (human) (UniProt Q8IVW4)
ERBB3 (human) = ERBB3 (human) (UniProt P21860)
CSNK1D (human) = CSNK1D (human) (UniProt P48730)
DMPK (human) = DMPK (human) (UniProt Q09013)
PI4KB (human) = PI4KB (human) (UniProt Q9UBF8)
CAMKK2 (human) = CAMKK2 (human) (UniProt Q96RR4)
[1] = target: TYK2 JH2 pseudokinase (human) (UniProt P29597)
PRKAA1 (human) = PRKAA1 (human) (UniProt Q13131)
TBK1 (human) = TBK1 (human) (UniProt Q9UHD2)
MYLK (human) = MYLK (human) (UniProt Q15746)
IRAK3 (human) = IRAK3 (human) (UniProt Q9Y616)
ITK (human) = ITK (human) (UniProt Q08881)
TXK (human) = TXK (human) (UniProt P42681)
MAPK10 (human) = MAPK10 (human) (UniProt P53779)
[2] = test system: KIT (human), P10721 [L576P]
PIM2 (human) = PIM2 (human) (UniProt Q9P1W9)
RPS6KA1 KD2 (human) = RPS6KA1 KD2 (human) (UniProt Q15418)
HIPK3 (human) = HIPK3 (human) (UniProt Q9H422)
SGK3 (human) = SGK3 (human) (UniProt Q96BR1)
AKT2 (human) = AKT2 (human) (UniProt P31751)
ACVR2B (human) = ACVR2B (human) (UniProt Q13705)
PRKCH (human) = PRKCH (human) (UniProt P24723)
FLT3 (human) = FLT3 (human) (UniProt P36888)
TGFBR2 (human) = TGFBR2 (human) (UniProt P37173)
EIF2AK2 (human) = EIF2AK2 (human) (UniProt P19525)

CAMKK2 (human), sequence (Q96RR4 whole entry, looked up): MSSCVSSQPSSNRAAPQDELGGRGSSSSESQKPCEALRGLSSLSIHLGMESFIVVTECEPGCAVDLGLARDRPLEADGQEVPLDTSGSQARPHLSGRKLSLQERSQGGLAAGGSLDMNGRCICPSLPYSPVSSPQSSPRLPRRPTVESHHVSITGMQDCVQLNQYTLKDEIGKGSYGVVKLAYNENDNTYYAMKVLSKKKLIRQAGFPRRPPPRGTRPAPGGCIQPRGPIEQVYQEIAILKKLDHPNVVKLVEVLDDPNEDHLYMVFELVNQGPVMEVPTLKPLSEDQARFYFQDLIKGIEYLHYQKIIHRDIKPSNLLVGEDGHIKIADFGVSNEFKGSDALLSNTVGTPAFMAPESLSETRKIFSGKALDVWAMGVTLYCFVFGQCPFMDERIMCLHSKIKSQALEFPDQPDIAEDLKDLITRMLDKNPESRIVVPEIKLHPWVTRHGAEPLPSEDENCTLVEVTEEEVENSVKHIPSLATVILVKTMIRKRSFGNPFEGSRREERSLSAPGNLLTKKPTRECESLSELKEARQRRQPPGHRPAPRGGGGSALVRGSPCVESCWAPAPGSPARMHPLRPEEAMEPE
PIM2 (human), sequence (Q9P1W9 whole entry, looked up): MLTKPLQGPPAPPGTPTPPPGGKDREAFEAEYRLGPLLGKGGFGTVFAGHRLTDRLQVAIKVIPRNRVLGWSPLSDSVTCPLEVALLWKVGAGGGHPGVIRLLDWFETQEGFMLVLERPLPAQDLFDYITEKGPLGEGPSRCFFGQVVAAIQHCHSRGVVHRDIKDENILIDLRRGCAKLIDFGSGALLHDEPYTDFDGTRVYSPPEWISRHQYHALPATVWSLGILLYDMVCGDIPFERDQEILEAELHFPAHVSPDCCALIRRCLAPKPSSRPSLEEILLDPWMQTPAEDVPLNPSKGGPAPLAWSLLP
RPS6KA3 KD1 (human), sequence (P51812 whole entry, looked up): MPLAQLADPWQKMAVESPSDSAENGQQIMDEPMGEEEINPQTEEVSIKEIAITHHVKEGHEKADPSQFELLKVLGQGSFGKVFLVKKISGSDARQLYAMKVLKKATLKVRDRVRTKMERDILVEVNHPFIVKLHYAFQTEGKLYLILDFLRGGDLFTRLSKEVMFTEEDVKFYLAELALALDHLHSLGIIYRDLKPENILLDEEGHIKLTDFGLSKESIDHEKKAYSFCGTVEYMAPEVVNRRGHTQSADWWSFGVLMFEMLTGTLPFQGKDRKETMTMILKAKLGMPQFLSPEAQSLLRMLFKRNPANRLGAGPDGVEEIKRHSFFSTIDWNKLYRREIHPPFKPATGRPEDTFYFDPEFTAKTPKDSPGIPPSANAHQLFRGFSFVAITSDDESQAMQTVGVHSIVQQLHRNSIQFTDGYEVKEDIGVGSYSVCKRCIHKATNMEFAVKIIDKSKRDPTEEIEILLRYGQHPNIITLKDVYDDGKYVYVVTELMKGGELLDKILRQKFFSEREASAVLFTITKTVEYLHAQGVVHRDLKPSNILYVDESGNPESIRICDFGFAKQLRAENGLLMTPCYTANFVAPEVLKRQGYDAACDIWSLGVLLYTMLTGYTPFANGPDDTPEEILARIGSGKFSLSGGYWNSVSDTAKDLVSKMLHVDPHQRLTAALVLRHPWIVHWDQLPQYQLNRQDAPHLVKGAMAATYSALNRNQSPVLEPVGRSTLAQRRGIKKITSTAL
SGK3 (human), sequence (Q96BR1 whole entry, looked up): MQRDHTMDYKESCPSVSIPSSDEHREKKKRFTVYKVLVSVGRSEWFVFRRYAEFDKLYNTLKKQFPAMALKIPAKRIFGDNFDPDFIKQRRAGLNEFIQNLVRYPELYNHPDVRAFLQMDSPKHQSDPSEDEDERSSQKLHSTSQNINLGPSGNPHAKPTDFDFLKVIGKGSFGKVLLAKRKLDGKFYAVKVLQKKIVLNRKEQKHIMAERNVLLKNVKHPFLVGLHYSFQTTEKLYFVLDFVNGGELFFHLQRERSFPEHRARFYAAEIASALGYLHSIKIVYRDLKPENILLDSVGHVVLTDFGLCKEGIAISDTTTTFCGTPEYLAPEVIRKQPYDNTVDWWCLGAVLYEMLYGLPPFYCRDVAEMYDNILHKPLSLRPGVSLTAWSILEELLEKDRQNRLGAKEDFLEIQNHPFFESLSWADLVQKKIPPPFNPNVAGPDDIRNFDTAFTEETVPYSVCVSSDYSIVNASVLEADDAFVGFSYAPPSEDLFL
HIPK3 (human), sequence (Q9H422 whole entry, looked up): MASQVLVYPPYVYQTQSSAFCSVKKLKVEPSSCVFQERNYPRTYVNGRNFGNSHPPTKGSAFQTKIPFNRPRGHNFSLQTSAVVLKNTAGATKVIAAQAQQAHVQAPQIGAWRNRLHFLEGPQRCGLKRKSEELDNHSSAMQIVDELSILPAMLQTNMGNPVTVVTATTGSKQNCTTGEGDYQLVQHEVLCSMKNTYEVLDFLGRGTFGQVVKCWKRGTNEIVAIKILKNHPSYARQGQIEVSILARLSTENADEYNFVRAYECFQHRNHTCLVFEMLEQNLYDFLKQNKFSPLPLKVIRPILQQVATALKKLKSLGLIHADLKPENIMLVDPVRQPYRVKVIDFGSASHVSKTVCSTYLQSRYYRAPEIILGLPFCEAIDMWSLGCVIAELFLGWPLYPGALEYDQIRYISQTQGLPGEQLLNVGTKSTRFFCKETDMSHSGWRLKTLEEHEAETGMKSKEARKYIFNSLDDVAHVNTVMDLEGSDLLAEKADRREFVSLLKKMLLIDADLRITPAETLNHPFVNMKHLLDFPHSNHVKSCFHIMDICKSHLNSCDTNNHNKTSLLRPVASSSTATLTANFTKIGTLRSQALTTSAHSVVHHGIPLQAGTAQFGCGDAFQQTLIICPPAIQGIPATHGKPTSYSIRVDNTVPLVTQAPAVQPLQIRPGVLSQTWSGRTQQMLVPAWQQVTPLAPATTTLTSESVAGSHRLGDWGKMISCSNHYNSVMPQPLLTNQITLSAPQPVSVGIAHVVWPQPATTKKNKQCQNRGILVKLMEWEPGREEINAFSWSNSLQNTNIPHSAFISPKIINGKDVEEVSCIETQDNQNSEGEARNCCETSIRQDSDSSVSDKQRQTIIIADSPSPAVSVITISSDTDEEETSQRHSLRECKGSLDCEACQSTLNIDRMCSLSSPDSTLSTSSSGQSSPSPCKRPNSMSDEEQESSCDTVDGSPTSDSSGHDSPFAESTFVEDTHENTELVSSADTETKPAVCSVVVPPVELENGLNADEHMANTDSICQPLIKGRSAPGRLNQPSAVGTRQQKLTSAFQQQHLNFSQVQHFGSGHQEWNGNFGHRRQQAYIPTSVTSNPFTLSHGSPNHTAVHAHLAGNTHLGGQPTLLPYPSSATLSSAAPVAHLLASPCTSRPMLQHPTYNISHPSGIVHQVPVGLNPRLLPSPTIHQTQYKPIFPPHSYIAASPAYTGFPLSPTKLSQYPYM
ERBB3 (human), sequence (P21860 whole entry, looked up): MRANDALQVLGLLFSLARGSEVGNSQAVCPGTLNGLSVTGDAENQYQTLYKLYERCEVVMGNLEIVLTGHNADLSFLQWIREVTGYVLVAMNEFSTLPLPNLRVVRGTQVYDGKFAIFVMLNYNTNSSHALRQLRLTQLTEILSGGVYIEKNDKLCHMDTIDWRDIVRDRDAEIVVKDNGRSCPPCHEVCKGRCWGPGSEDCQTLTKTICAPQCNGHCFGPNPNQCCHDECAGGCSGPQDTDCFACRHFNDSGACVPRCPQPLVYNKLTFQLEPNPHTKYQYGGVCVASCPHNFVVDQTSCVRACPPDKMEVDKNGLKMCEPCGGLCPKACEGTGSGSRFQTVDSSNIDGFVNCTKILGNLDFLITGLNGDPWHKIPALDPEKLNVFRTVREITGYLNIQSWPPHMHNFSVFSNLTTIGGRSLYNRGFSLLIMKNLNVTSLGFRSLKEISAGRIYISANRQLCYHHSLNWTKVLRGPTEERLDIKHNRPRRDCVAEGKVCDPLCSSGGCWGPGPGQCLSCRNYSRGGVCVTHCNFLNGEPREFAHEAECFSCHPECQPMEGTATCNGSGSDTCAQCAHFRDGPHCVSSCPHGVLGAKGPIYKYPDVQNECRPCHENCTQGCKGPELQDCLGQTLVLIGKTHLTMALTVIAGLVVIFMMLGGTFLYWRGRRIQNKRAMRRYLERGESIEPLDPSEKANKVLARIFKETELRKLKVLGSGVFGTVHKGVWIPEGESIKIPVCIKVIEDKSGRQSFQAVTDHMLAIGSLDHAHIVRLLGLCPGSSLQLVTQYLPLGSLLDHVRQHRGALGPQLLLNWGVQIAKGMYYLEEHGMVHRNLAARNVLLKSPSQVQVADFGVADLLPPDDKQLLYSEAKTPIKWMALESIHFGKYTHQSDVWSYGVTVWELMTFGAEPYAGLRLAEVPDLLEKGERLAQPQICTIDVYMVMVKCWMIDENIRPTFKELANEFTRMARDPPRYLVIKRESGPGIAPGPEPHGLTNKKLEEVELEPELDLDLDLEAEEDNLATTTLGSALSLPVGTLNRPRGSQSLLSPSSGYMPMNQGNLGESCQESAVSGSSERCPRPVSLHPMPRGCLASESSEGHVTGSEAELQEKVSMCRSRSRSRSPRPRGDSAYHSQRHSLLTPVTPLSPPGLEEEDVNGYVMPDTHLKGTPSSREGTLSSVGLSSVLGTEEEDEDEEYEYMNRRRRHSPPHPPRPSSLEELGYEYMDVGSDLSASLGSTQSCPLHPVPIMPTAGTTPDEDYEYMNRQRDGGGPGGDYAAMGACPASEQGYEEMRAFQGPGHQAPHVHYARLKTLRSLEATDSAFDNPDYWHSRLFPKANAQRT

SMILES | kinase still bound, per cent of control (IGF1R (human)) | kinase still bound, per cent of control (WEE1 (human)) | kinase still bound, per cent of control (PIP5K1C (human)) | kinase still bound, per cent of control (PRPF4B (human)) | kinase still bound, per cent of control (ZAP70 (human)) | kinase still bound, per cent of control (MATK (human)) | kinase still bound, per cent of control (RPS6KA3 KD1 (human)) | kinase still bound, per cent of control (AKT3 (human)) | kinase still bound, per cent of control (ULK2 (human)) | kinase still bound, per cent of control (CDK14 (human)) | kinase still bound, per cent of control (NTRK2 (human)) | kinase still bound, per cent of control (CSK (human)) | kinase still bound, per cent of control (BTK (human)) | kinase still bound, per cent of control (PDGFRA (human)) | kinase still bound, per cent of control (TESK1 (human)) | kinase still bound, per cent of control (CDKL3 (human)) | kinase still bound, per cent of control (ERBB3 (human)) | kinase still bound, per cent of control (CSNK1D (human)) | kinase still bound, per cent of control (DMPK (human)) | kinase still bound, per cent of control (PI4KB (human)) | further results
CCN1CCN(C(=O)Cc2ccc(Nc3ncc(F)c(Nc4ccc(C(=O)Nc5ccccc5Cl)cc4)n3)cc2)CC1 | 46% | 31% | 77% | 18% | 100% | 100% | 32% | 100% | 77% | 53% | 27% | 73% | 27% | 38% | 44% | 89% | 45% | 100% | 100% | 100% | kinase still bound, per cent of control (CAMKK2 (human)): 48%; kinase still bound, per cent of control [1]: 12%; kinase still bound, per cent of control (PRKAA1 (human)): 32%; kinase still bound, per cent of control (TBK1 (human)): 5.6%; kinase still bound, per cent of control (MYLK (human)): 57%; kinase still bound, per cent of control (IRAK3 (human)): 1.8%; kinase still bound, per cent of control (ITK (human)): 52%; kinase still bound, per cent of control (TXK (human)): 2.2%; kinase still bound, per cent of control (MAPK10 (human)): 0.8%; kinase still bound, per cent of control [2]: 3.2%; kinase still bound, per cent of control (PIM2 (human)): 100%; kinase still bound, per cent of control (RPS6KA1 KD2 (human)): 45%; kinase still bound, per cent of control (HIPK3 (human)): 12%; kinase still bound, per cent of control (SGK3 (human)): 100%; kinase still bound, per cent of control (AKT2 (human)): 95%; kinase still bound, per cent of control (ACVR2B (human)): 38%; kinase still bound, per cent of control (PRKCH (human)): 100%; kinase still bound, per cent of control (FLT3 (human)): 0.7%; kinase still bound, per cent of control (TGFBR2 (human)): 100%; kinase still bound, per cent of control (EIF2AK2 (human)): 15%
COc1ccc(N(C(=O)Oc2c(C)cccc2C)c2ccnc(Nc3ccc(N4CCN(C)CC4)cc3)n2)c(OC)c1 | 100% | 85% | 96% | 55% | 79% | 67% | 37% | 100% | 38% | 93% | 82% | 2.5% | 1.3% | 9.9% | 0% | 0.1% | 0% | 82% | 0.05% | 100% | kinase still bound, per cent of control (CAMKK2 (human)): 56%; kinase still bound, per cent of control [1]: 100%; kinase still bound, per cent of control (PRKAA1 (human)): 23%; kinase still bound, per cent of control (TBK1 (human)): 74%; kinase still bound, per cent of control (MYLK (human)): 100%; kinase still bound, per cent of control (IRAK3 (human)): 19%; kinase still bound, per cent of control (ITK (human)): 100%; kinase still bound, per cent of control (TXK (human)): 0.45%; kinase still bound, per cent of control (MAPK10 (human)): 37%; kinase still bound, per cent of control [2]: 1%; kinase still bound, per cent of control (PIM2 (human)): 100%; kinase still bound, per cent of control (RPS6KA1 KD2 (human)): 65%; kinase still bound, per cent of control (HIPK3 (human)): 91%; kinase still bound, per cent of control (SGK3 (human)): 100%; kinase still bound, per cent of control (AKT2 (human)): 100%; kinase still bound, per cent of control (ACVR2B (human)): 1.8%; kinase still bound, per cent of control (PRKCH (human)): 35%; kinase still bound, per cent of control (FLT3 (human)): 2.3%; kinase still bound, per cent of control (TGFBR2 (human)): 16%; kinase still bound, per cent of control (EIF2AK2 (human)): 92%
O=C1NC(=O)/C(=C/c2ccc3nccc(-c4ccncc4)c3c2)S1 | 100% | 100% | 28% | 88% | 93% | 50% | 41% | 100% | 65% | 37% | 73% | 80% | 58% | 67% | 84% | 99% | 88% | 3.6% | 2.9% | 0.4% | kinase still bound, per cent of control (CAMKK2 (human)): 2%; kinase still bound, per cent of control [1]: 51%; kinase still bound, per cent of control (PRKAA1 (human)): 88%; kinase still bound, per cent of control (TBK1 (human)): 29%; kinase still bound, per cent of control (MYLK (human)): 19%; kinase still bound, per cent of control (IRAK3 (human)): 14%; kinase still bound, per cent of control (ITK (human)): 81%; kinase still bound, per cent of control (TXK (human)): 79%; kinase still bound, per cent of control (MAPK10 (human)): 26%; kinase still bound, per cent of control [2]: 34%; kinase still bound, per cent of control (PIM2 (human)): 1%; kinase still bound, per cent of control (RPS6KA1 KD2 (human)): 19%; kinase still bound, per cent of control (HIPK3 (human)): 1.2%; kinase still bound, per cent of control (SGK3 (human)): 66% and 84%; kinase still bound, per cent of control (AKT2 (human)): 100%; kinase still bound, per cent of control (ACVR2B (human)): 20%; kinase still bound, per cent of control (PRKCH (human)): 88%; kinase still bound, per cent of control (FLT3 (human)): 39% and 61%; kinase still bound, per cent of control (TGFBR2 (human)): 73%; kinase still bound, per cent of control (EIF2AK2 (human)): 20%
